# Earlier results as cited in article PMC5742115, “Pharmacophore Modeling and in Silico/in Vitro Screening for Human Cytochrome P450 11B1 and Cytochrome P450 11B2 Inhibitors” (Frontiers in Chemistry, 2017).
# Tested on: CYP11B2
# Settings: reported activity, supplementary Table 1; ref Blass, 2013a; read-out: CYP11B2 IC50; cited from earlier work
row,Compound,IC50
1,COC(C)(C)c1cncc(-c2ccc3c(c2)CCc2nnc(C)n2-3)c1 [CHEMBL2331704],5 nM

# Same assay, conditions: reported activity, supplementary Table 1; ref Dorr et al., 1984; read-out: CYP11B2 IC50; cited from earlier work
row,Compound,IC50
1,"CCOC(=O)c1cncn1[C@H](C)c1ccccc1 [CHEMBL681, Etomidate]",0.1 nM

# Same assay, conditions: reported activity, supplementary Table 1; ref Emmerich et al., 2013; read-out: CYP11B2 IC50; cited from earlier work
row,Compound,IC50
1,FC(F)(F)c1cncc(Cc2ccc(-c3ccccc3)nc2)c1 [CHEMBL2417613],115 nM
2,c1cn(C(c2ccc(-c3ccsc3)nc2)C2CC2)cn1 (centres unmarked) [CHEMBL2417626],31 nM
3,CC(C)C(c1ccc(-c2ccccc2)nc1)n1ccnc1 (centres unmarked) [CHEMBL2417622],28 nM

# Same assay, conditions: reported activity, supplementary Table 1; ref Gobbi et al., 2013; read-out: CYP11B2 IC50; cited from earlier work
row,Compound,IC50
1,O=c1c2ccccc2oc2c(OC3CCCC3)ccc(Cn3ccnc3)c12 [CHEMBL2333335],99.7 nM

# Same assay, conditions: reported activity, supplementary Table 1; ref Heim et al., 2008; read-out: CYP11B2 IC50; cited from earlier work
row,Compound,IC50
1,COc1ccc2cc(-c3cncc(-c4ccccc4)c3)ccc2c1 [CHEMBL500393],4.8 nM
2,COc1cncc(C2=Cc3ccc(OC)cc3CC2C)c1 (centres unmarked) [CHEMBL500145],1.2 nM
3,COc1ccc2cc(-c3cncc(C(C)=O)c3)ccc2c1 [CHEMBL502824],2.1 nM

# Same assay, conditions: reported activity, supplementary Table 1; ref Hille et al., 2011a; read-out: CYP11B2 IC50; cited from earlier work
row,Compound,IC50
1,Brc1ncccc1Cn1ccnc1 [CHEMBL2011242],911 nM

# Same assay, conditions: reported activity, supplementary Table 1; ref Hille et al., 2011b; read-out: CYP11B2 IC50; cited from earlier work
row,Compound,IC50
1,Cc1c(C)c(C)c(Cn2ccnc2)c(C)c1C [CHEMBL1651495],23 nM

# Same assay, conditions: reported activity, supplementary Table 1; ref Lucas et al., 2008b; read-out: CYP11B2 IC50; cited from earlier work
row,Compound,IC50
1,S=C1CCc2cc(-c3cccnc3)ccc2N1 [CHEMBL511329],3.1 nM
2,O=C1CCc2cc(-c3cncc4ccccc34)ccc2N1 [CHEMBL456390],0.2 nM
3,O=C1CCc2cc(-c3cccnc3)cc(Cl)c2N1 [CHEMBL457640],3.8 nM
4,S=C1CCc2cc(-c3cccnc3)cc(Cl)c2N1 [CHEMBL508155],4.2 nM

# Same assay, conditions: reported activity, supplementary Table 1; ref Lucas et al., 2011; read-out: CYP11B2 IC50; cited from earlier work
row,Compound,IC50
1,COc1ccc(-c2cncc(-c3cc4c5c(c3)CCN5C(=O)CC4)c2)cc1 [CHEMBL1765228],1.4 nM
2,COc1cncc(-c2cc3c4c(c2)CCN4C(=O)CC3)c1 [CHEMBL1765207],0.6 nM
3,O=C1CCc2cc(-c3cncc(-c4cc(F)ccc4F)c3)cc3c2N1CC3 [CHEMBL1765223],3.6 nM
4,O=C1CCc2cc(-c3cncc(-c4cccc(O)c4)c3)cc3c2N1CC3 [CHEMBL1765229],1.2 nM

# Same assay, conditions: reported activity, supplementary Table 1; ref Pinto-Bazurco Mendieta et al., 2013; read-out: CYP11B2 IC50; cited from earlier work
row,Compound,IC50
1,Oc1ccc2ccc(-c3cncc(F)c3)c(Cl)c2c1 [CHEMBL2420680],33 nM
2,Oc1ccc2ccc(-c3cncc4ccccc34)c(Cl)c2c1 [CHEMBL2420688],66 nM
3,COc1ccc2ccc(-c3cccnc3)cc2c1 [CHEMBL193863],68 nM

# Same assay, conditions: reported activity, supplementary Table 1; ref Roumen et al., 2010; read-out: CYP11B2 IC50; cited from earlier work
row,Compound,IC50
1,OCCCc1cncn1Cc1ccc(Br)cc1 [CHEMBL598810],6.2 nM
2,N#Cc1ccc(Cn2cncc2-c2cccc(F)c2)cc1 [CHEMBL598789],5.5 nM
3,N#Cc1ccc(Cn2cncc2CO)cc1 [CHEMBL599601],29 nM
4,N#Cc1ccc(Cn2cncc2Br)cc1 [CHEMBL599223],23 nM
5,"CCOC(=O)c1cncn1[C@H](C)c1ccccc1 [CHEMBL681, Etomidate]",1.7 nM
6,COc1ccc(Cn2cncc2CCCO)cc1 [CHEMBL597577],59 nM

# Same assay, conditions: reported activity, supplementary Table 1; ref Stefanachi et al., 2011; read-out: CYP11B2 IC50; cited from earlier work
row,Compound,IC50
1,O=c1cc(Cn2ccnc2)c2ccc(OCc3ccccc3)cc2o1 [CHEMBL225499],289 nM

# Same assay, conditions: reported activity, supplementary Table 1; ref Ulmschneider et al., 2005a; read-out: CYP11B2 IC50; cited from earlier work
row,Compound,IC50
1,Brc1ccc2c(c1)CC/C2=C/c1ccncc1 [CHEMBL179222],56 nM
2,COc1cc2c(cc1OC)/C(=C/c1ccncc1)CCC2 [CHEMBL193858],11 nM
3,Cc1ccc2c(c1)/C(=C/c1ccncc1)CC2 [CHEMBL371742],4 nM
4,Fc1ccc2c(c1)CC/C2=C\c1cccc2ncccc12 [CHEMBL195580],14 nM
5,Clc1ccc2c(c1)CC/C2=C/c1ccncc1 [CHEMBL175799],36 nM
6,Brc1ccc2c(c1)CC/C2=C\c1cccnc1 [CHEMBL194440],171 nM

# Tested on: CYP11B1
# Settings: reported activity, supplementary Table 1; ref Blass, 2013a; read-out: CYP11B1 IC50; cited from earlier work
row,Compound,IC50
1,COC(C)(C)c1cncc(-c2ccc3c(c2)CCc2nnc(C)n2-3)c1 [CHEMBL2331704],108 nM

# Same assay, conditions: reported activity, supplementary Table 1; ref Emmerich et al., 2013; read-out: CYP11B1 IC50; cited from earlier work
row,Compound,IC50
1,FC(F)(F)c1cncc(Cc2ccc(-c3ccccc3)nc2)c1 [CHEMBL2417613],38 nM
2,c1cn(C(c2ccc(-c3ccsc3)nc2)C2CC2)cn1 (centres unmarked) [CHEMBL2417626],11 nM

# Same assay, conditions: reported activity, supplementary Table 1; ref Gobbi et al., 2013; read-out: CYP11B1 IC50; cited from earlier work
row,Compound,IC50
1,O=c1c2ccccc2oc2c(OC3CCCC3)ccc(Cn3ccnc3)c12 [CHEMBL2333335],268 nM

# Same assay, conditions: reported activity, supplementary Table 1; ref Heim et al., 2008; read-out: CYP11B1 IC50; cited from earlier work
row,Compound,IC50
1,COc1ccc2cc(-c3cncc(-c4ccccc4)c3)ccc2c1 [CHEMBL500393],151 nM
2,COc1cncc(C2=Cc3ccc(OC)cc3CC2C)c1 (centres unmarked) [CHEMBL500145],100 nM
3,COc1ccc2cc(-c3cncc(C(C)=O)c3)ccc2c1 [CHEMBL502824],255 nM

# Same assay, conditions: reported activity, supplementary Table 1; ref Hille et al., 2011a; read-out: CYP11B1 IC50; cited from earlier work
row,Compound,IC50
1,Brc1ncccc1Cn1ccnc1 [CHEMBL2011242],61 nM

# Same assay, conditions: reported activity, supplementary Table 1; ref Hille et al., 2011b; read-out: CYP11B1 IC50; cited from earlier work
row,Compound,IC50
1,Cc1c(C)c(C)c(Cn2ccnc2)c(C)c1C [CHEMBL1651495],5 nM

# Same assay, conditions: reported activity, supplementary Table 1; ref Lucas et al., 2008b; read-out: CYP11B1 IC50; cited from earlier work
row,Compound,IC50
1,S=C1CCc2cc(-c3cccnc3)ccc2N1 [CHEMBL511329],580 nM
2,O=C1CCc2cc(-c3cncc4ccccc34)ccc2N1 [CHEMBL456390],33 nM
3,O=C1CCc2cc(-c3cccnc3)cc(Cl)c2N1 [CHEMBL457640],1670 nM
4,S=C1CCc2cc(-c3cccnc3)cc(Cl)c2N1 [CHEMBL508155],769 nM

# Same assay, conditions: reported activity, supplementary Table 1; ref Lucas et al., 2011; read-out: CYP11B1 IC50; cited from earlier work
row,Compound,IC50
1,COc1ccc(-c2cncc(-c3cc4c5c(c3)CCN5C(=O)CC4)c2)cc1 [CHEMBL1765228],21 nM
2,COc1cncc(-c2cc3c4c(c2)CCN4C(=O)CC3)c1 [CHEMBL1765207],247 nM
3,O=C1CCc2cc(-c3cncc(-c4cc(F)ccc4F)c3)cc3c2N1CC3 [CHEMBL1765223],183 nM
4,O=C1CCc2cc(-c3cncc(-c4cccc(O)c4)c3)cc3c2N1CC3 [CHEMBL1765229],44 nM

# Same assay, conditions: reported activity, supplementary Table 1; ref Pinto-Bazurco Mendieta et al., 2013; read-out: CYP11B1 IC50; cited from earlier work
row,Compound,IC50
1,Oc1ccc2ccc(-c3cncc(F)c3)c(Cl)c2c1 [CHEMBL2420680],450 nM
2,Oc1ccc2ccc(-c3cncc4ccccc34)c(Cl)c2c1 [CHEMBL2420688],238 nM

# Same assay, conditions: reported activity, supplementary Table 1; ref Roumen et al., 2010; read-out: CYP11B1 IC50; cited from earlier work
row,Compound,IC50
1,OCCCc1cncn1Cc1ccc(Br)cc1 [CHEMBL598810],18 nM
2,N#Cc1ccc(Cn2cncc2-c2cccc(F)c2)cc1 [CHEMBL598789],32 nM
3,N#Cc1ccc(Cn2cncc2CO)cc1 [CHEMBL599601],285 nM
4,N#Cc1ccc(Cn2cncc2Br)cc1 [CHEMBL599223],73 nM

# Same assay, conditions: reported activity, supplementary Table 1; ref Stefanachi et al., 2011; read-out: CYP11B1 IC50; cited from earlier work
row,Compound,IC50
1,O=c1cc(Cn2ccnc2)c2ccc(OCc3ccccc3)cc2o1 [CHEMBL225499],72 nM

# Same assay, conditions: reported activity, supplementary Table 1; ref Ulmschneider et al., 2005a; read-out: CYP11B1 IC50; cited from earlier work
row,Compound,IC50
1,Brc1ccc2c(c1)CC/C2=C/c1ccncc1 [CHEMBL179222],484 nM
2,Clc1ccc2c(c1)CC/C2=C/c1ccncc1 [CHEMBL175799],301 nM
3,Brc1ccc2c(c1)CC/C2=C\c1cccnc1 [CHEMBL194440],320 nM
